According to BigSolDB 2.1:

O=C(O)CCc1nc(-c2ccccc2)c(-c2ccccc2)o1
solubility (mole fraction)
Settings	278.15 K	283.15 K	288.15 K	293.15 K	298.15 K	303.15 K	308.15 K	313.15 K	318.15 K	323.15 K
in DMAc	0.205	0.213	0.223	0.232	0.243	0.252	0.261	0.273	0.284	0.295
in DMF	0.136	0.146	0.154	0.164	0.174	0.186	0.197	0.207	0.219	0.232
in DMSO	–	–	–	0.214	0.226	0.24	0.256	0.272	0.287	0.303
in ethanol	0.00257	0.00315	0.00388	0.00476	0.00592	0.00716	0.00894	0.0112	0.014	0.0177
in ethyl acetate	0.00398	0.00472	0.00558	0.00661	0.00778	0.00925	0.011	0.0129	0.0151	0.0178
in methanol	0.0023	0.00282	0.00343	0.00426	0.00523	0.00657	0.00821	0.0103	0.013	0.0164
in methyl acetate	0.00533	0.00626	0.00735	0.00867	0.0102	0.012	0.0146	0.0167	0.0192	0.022
in n-butanol	0.00266	0.00328	0.00422	0.00533	0.00663	0.008	0.0105	0.0131	0.0164	0.0205
in n-butyl acetate	0.00293	0.00347	0.00416	0.00489	0.00593	0.00707	0.00842	0.01	0.012	0.0143
in n-pentanol	0.00266	0.00349	0.00458	0.00561	0.00701	0.00864	0.0108	0.0134	0.0168	0.021
in n-pentyl acetate	0.00274	0.00331	0.00387	0.0046	0.0055	0.00654	0.00782	0.00931	0.0111	0.0132
in n-propanol	0.00255	0.00326	0.00414	0.00519	0.00637	0.00794	0.01	0.0122	0.0161	0.0201
in n-propyl acetate	0.0032	0.00386	0.00463	0.00534	0.00656	0.00781	0.00935	0.0111	0.0132	0.0158
